Experimental data as given in patent EP1618784A1, “AQUEOUS AGRICULTURAL-CHEMICAL SUSPENSION COMPOSITION” (KUMIAI CHEMICAL INDUSTRY CO., LTD., priority 2003, dated 2004).
Counter-ions that a name gives are not always drawn. Like-named read-outs stand apart in the source and are kept apart here.

Columns and labels:
[1] = cited from earlier work
[2] = Solubility of the agrochemically active ingredient in the aqueous solution of water-soluble compound (B); type: physicochemical
Protocol: While the method for measuring the solubility of the agrochemically active ingredient as the component (A) in the aqueous solution of the water-soluble compound as the component (B) is not particularly limitative, the method contains, for example, adding an excess amount of the agrochemically active ingredient in an aqueous solution in which given quantities of the water-soluble compound are dissolved in water, filtering the solution with a membrane filter after stirring at room temperature for several hours, and analyzing the concentration in the filtrate according to an analysis method of the respective agrochemically active ingredients to calculate the solubility. The concentrations of the water-soluble compounds for allowing the solubility of the respective agrochemically active ingredients to be smaller than 2 g/100 ml are determined in the invention by preparing aqueous solutions with different concentrations of variety of the component (B) such as an inorganic acid, the specified organic acid and alkali metal salt and ammonium salt thereof and by measuring the solubility of the agrochemically active ingredient in each aqueous solution.

For `COc1cc(OC)nc(Sc2cccc(Cl)c2C(=O)[O-])n1.[Na+]` [pyrithiobac-sodium, sodium 2-chloro-6-(4,6-dimethoxypyrimidin-2-ylthio)benzoate], the solubility in water ([1]; 20 °C, at pH 5) is listed as 26.4 g/100 ml.
For `Oc1cccc2cccnc12` [8-hydroxyquinoline sulfate, bis(8-hydroxyquinolinium)sulfate], the solubility in water ([1]; 20 °C, pure water) is listed as 30 g/100 ml.
For `CN/C(=N/CC1CCOC1)N[N+](=O)[O-]` (racemic) [dinotefuran, (EZ)-(RS)-1-methyl-2-nitro-3-(tetrahydro-3-furylmethyl)guanidine], the solubility in water ([1]; 20 °C, pure water) is listed as 5.43 g/100 ml.
For `COC(=O)NS(=O)(=O)c1ccc(N)cc1.[Ca]` [asulam-calcium, calcium methyl sulfanilylcarbamate], the solubility in water ([1]; 20 °C, pure water) is given as 20 g/100 ml.
For `COC(=O)c1ccc(C(F)(F)F)nc1S(=O)(=O)NC(=O)Nc1nc(OC)cc(OC)n1.[Na]` [flupyrsulfuron-methyl-sodium, methyl 2-(4,6-dimethoxypyrimidine-2-ylcarbamoylsulfamoyl)-6-trifluoromethylnicotinate monosodium salt], the solubility in water ([1]; 20 °C, pure water) is given as 6.3 g/100 ml.
In the case of `COc1nn(C(=O)NS(=O)(=O)c2ccccc2OC(F)(F)F)c(=O)n1C` [flucarbazone-sodium, 4,5-dihydro-3-methoxy-4-methyl-5-oxo-N-[(2-(trifluoromethoxy)phenylsulfonyl]-1 H-1,2,4-triazole-1-carboxyamidesodium salt], the solubility ([2]; aqueous acetic acid/sodium acetate, 0.23 part acetic acid and 2.8 parts sodium acetate in 73.77 parts water (Example 5)) is listed as 11000 µg/mL and the solubility in water ([1]; 20 °C, pure water) is listed as 4.4 g/100 ml.
`COc1cc(OC)nc(Oc2cccc(Oc3nc(OC)cc(OC)n3)c2C(=O)[O-])n1.[Na+]` [bispyribac-sodium, sodium 2,6-bis(4,6-dimethoxypyrimidin-2-yloxy)benzoate] showed a solubility ([2]; aqueous ammonium hydrogencarbonate, 3.1 parts ammonium hydrogencarbonate in 75.4 parts water (Example 4)) of 9000 µg/mL, a solubility ([2]; aqueous sodium chloride, 3.1 parts sodium chloride in 75.4 parts water (Example 3)) of 6000 µg/mL and a solubility ([2]; aqueous sodium hydrogencarbonate/sodium carbonate, 1.4 parts sodium hydrogencarbonate and 0.16 part sodium carbonate in 76.94 parts water (Comparative Example 2)) of 30000 µg/mL. The solubility ([2]; aqueous sodium hydrogencarbonate/sodium carbonate, 1.6 parts sodium hydrogencarbonate and 0.18 part sodium carbonate in 46.77 parts water (Example 1)) was 14000 µg/mL, the solubility ([2]; aqueous sodium hydrogencarbonate/sodium carbonate, 3.9 parts sodium hydrogencarbonate and 0.44 part sodium carbonate in 74.16 parts water (Example 2)) was 4000 µg/mL and the solubility in water ([1]; 20 °C, pure water) was 7.3 g/100 ml.
In the case of `Cc1cc(Cl)ccc1OCC(=O)[O-].[Na+]` [MCPA-sodium, sodium (4-chloro-2-methylphenoxy)acetate], the solubility in water ([1]; water) is listed as 27 g/100 ml.
For `CCc1c(C(=O)[O-])c(=O)cnn1-c1ccc(Cl)cc1.[K+]` [clofencet-potassium, potassium 2-(4-chlorophenyl)-3-ethyl-2,5-dihydro-5-oxopyridazine-4-carboxylate], the solubility in water ([1]; 20 °C, pure water) is listed as “at least 65.5 g/100 ml”.
